From patent US6737383B1, “Herbicidal oxadiazolidines” (priority 1999, dated 2004)

Legend:
bedstraw = assay: Test B pre/postemergence bedstraw; assay type: in vivo, Galium aparine; settings: Postemergence
Outline: (§1)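 Response is a visual 0-to-10 score relative to untreated plants, where 0 means no effect and 10 means complete control, taken twelve to sixteen days after application. Treatments went onto soil at planting and onto foliage of 1- to 4-leaf plants, using a surfactant-containing non-phytotoxic solvent.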

blackgrass = assay: Test B pre/postemergence blackgrass; assay type: in vivo, Alopecurus myosuroides
Outline: as §1

surinam grass = assay: Test B pre/postemergence surinam grass; assay type: in vivo, Brachiaria decumbens
Outline: as §1

cocklebur = assay: Test B pre/postemergence cocklebur; assay type: in vivo, Xanthium strumarium
Outline: as §1

corn = assay: Test B pre/postemergence corn; assay type: in vivo, Zea mays
Outline: as §1

crabgrass = assay: Test B pre/postemergence crabgrass; assay type: in vivo, Digitaria sanguinalis
Outline: as §1

giant foxtail = assay: Test B pre/postemergence giant foxtail; assay type: in vivo, Setaria faberii
Outline: as §1

morningglory = assay: Test B pre/postemergence morningglory; assay type: in vivo, Ipomoea hederacea
Outline: as §1

pigweed = assay: Test B pre/postemergence pigweed; assay type: in vivo, Amaranthus retroflexus
Outline: as §1

rape = assay: Test B pre/postemergence rape; assay type: in vivo, Brassica napus
Outline: as §1

soybean = assay: Test B pre/postemergence soybean; assay type: in vivo, Glycine max
Outline: as §1

sugar beet = assay: Test B pre/postemergence sugar beet; assay type: in vivo, Beta vulgaris
Outline: as §1

velvetleaf = assay: Test B pre/postemergence velvetleaf; assay type: in vivo, Abutilon theophrasti
Outline: as §1

wheat = assay: Test B pre/postemergence wheat; assay type: in vivo, Triticum aestivum
Outline: as §1

wild oat = assay: Test B pre/postemergence wild oat; assay type: in vivo, Avena fatua
Outline: as §1

purple nutsedge = assay: Test B pre/postemergence purple nutsedge; assay type: in vivo, Cyperus rotundus
Outline: as §1

rice = assay: Test B flood test rice; assay type: in vivo, Oryza sativa
Outline: (§2)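 Flood test on plants grown to the 2-leaf stage; treated plants kept in greenhouse twelve to sixteen days, then visually rated against controls on a 0 (no effect) to 10 (complete control) scale.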

smallflower flatsedge = assay: Test B flood test smallflower flatsedge; assay type: in vivo, Cyperus difformis
Outline: as §2

duck salad = assay: Test B flood test duck salad; assay type: in vivo, Heteranthera limosa
Outline: as §2

bamyardgrass = assay: Test B flood test barnyardgrass; assay type: in vivo, Echinochloa crus-galli
Outline: as §2

[1] = Postemergence, Rate 125 g/ha, scale 0 to 10, 0 is no effect, 10 is complete control
[2] = Postemergence, Rate 250 g/ha, scale 0 to 10
[3] = Postemergence, Rate 500 g/ha, scale 0 to 10, 0 is no effect, 10 is complete control
[4] = Preemergence, Rate 62 g/ha, scale of 0 to 10 where 0 is no effect and 10 is complete control
[5] = Preemergence, Rate 125 g/ha, scale 0 to 10, 0 is no effect, 10 is complete control
[6] = Preemergence, Rate 250 g/ha, scale 0 to 10, 0 is no effect, 10 is complete control
[7] = Preemergence, Rate 500 g/ha, scale 0 to 10, 0 is no effect, 10 is complete control
[8] = Rate 62 g/ha, Postemergence, scale 0 to 10, 0 no effect, 10 complete control
[9] = Rate 62 g/ha, flood test species, Pre-emergence, visual evaluation after twelve to sixteen days
[10] = Rate 125 g/ha, under heading Pre-emergence, flood test species, visual evaluation after twelve to sixteen days
[11] = Rate 250 g/ha, Pre-emergence (flood test species), scale 0 to 10, 0 is no effect, 10 is complete control
[12] = Rate 500 g/ha, Pre-emergence section of Table B, 0 to 10 scale (0 no effect, 10 complete control)

## CC(C)N(C(=O)n1oc(=O)n(CC(=O)C2CC2)c1=O)c1ccc(F)cc1 [Compound 488]
bedstraw; Rate 125 g/ha, scale 0 to 10, 0 is no effect, 10 is complete control
  Bedstraw plant response rating: 2
bedstraw; Rate 250 g/ha, scale 0 to 10
  Bedstraw plant response rating: 4
bedstraw; Rate 500 g/ha, scale 0 to 10, 0 is no effect, 10 is complete control
  Plant response rating, Bedstraw: 9
bedstraw; Rate 62 g/ha, scale 0 to 10, 0 no effect, 10 complete control
  Bedstraw plant response rating: 0
blackgrass; [1]
  Blackgrass plant response rating: 8
blackgrass; [2]
  Blackgrass plant response rating: 8
blackgrass; [3]
  Plant response rating, Blackgrass: 8
blackgrass; [4]
  Plant response rating, Blackgrass: 5
blackgrass; [5]
  Blackgrass plant response rating: 8
blackgrass; [6]
  Blackgrass plant response rating: 8
blackgrass; [7]
  Blackgrass plant response rating: 10
blackgrass; [8]
  Blackgrass plant response rating: 1
Surinam grass; [1]
  B. signalgrass plant response rating: 4
Surinam grass; Postemergence, Rate 250 g/ha, scale 0 to 10, 0 no effect, 10 complete control
  B. signalgrass plant response rating: 6
Surinam grass; [3]
  Plant response rating, B. signalgrass: 7
Surinam grass; [4]
  Plant response rating, B. signalgrass: 4
Surinam grass; [5]
  B. signalgrass plant response rating: 7
Surinam grass; [6]
  B. signalgrass plant response rating: 7
Surinam grass; [7]
  B. signalgrass plant response rating: 10
Surinam grass; [8]
  B. signalgrass plant response rating: 0
cocklebur; [1]
  Cocklebur plant response rating: 0
cocklebur; [2]
  Cocklebur plant response rating: 0
cocklebur; [3]
  Plant response rating, Cocklebur: 0
cocklebur; [4]
  Plant response rating, Cocklebur: 0
cocklebur; [5]
  Cocklebur plant response rating: 0
cocklebur; [6]
  Cocklebur plant response rating: 0
cocklebur; [7]
  Cocklebur plant response rating: 0
cocklebur; [8]
  Cocklebur plant response rating: 0
corn; [1]
  Corn plant response rating: 0
corn; [2]
  Corn plant response rating: 0
corn; [3]
  Plant response rating, Corn: 0
corn; [4]
  Plant response rating, Corn: 0
corn; [5]
  Corn plant response rating: 0
corn; [7]
  Corn plant response rating: 6
corn; [8]
  Corn plant response rating: 0
crabgrass; [1]
  Crabgrass plant response rating: 7
crabgrass; [2]
  Crabgrass plant response rating: 8
crabgrass; [3]
  Plant response rating, Crabgrass: 9
crabgrass; [4]
  Plant response rating, Crabgrass: 8
crabgrass; [5]
  Crabgrass plant response rating: 10
crabgrass; [7]
  Crabgrass plant response rating: 10
Giant foxtail; [1]
  Giant foxtail plant response rating: 8
Giant foxtail; [3]
  Plant response rating, Giant foxtail: 9
Giant foxtail; [4]
  Plant response rating, Giant foxtail: 9
Giant foxtail; [5]
  Giant foxtail plant response rating: 10
Giant foxtail; [7]
  Giant foxtail plant response rating: 10
Giant foxtail; [8]
  Giant foxtail plant response rating: 5
morningglory; [1]
  Morningglory plant response rating: 2
morningglory; [3]
  Plant response rating, Morningglory: 8
morningglory; [4]
  Plant response rating, Morningglory: 0
morningglory; [5]
  Morningglory plant response rating: 0
morningglory; [7]
  Morningglory plant response rating: 0
morningglory; [8]
  Morningglory plant response rating: 1
pigweed; [1]
  Redroot pigweed plant response rating: 0
pigweed; [3]
  Plant response rating, Redroot pigweed: 2
pigweed; [4]
  Plant response rating, Redroot pigweed: 4
pigweed; [5]
  Redroot pigweed plant response rating: 10
pigweed; [7]
  Redroot pigweed plant response rating: 10
pigweed; [8]
  Redroot pigweed plant response rating: 0
rape; [1]
  Rape plant response rating: 0
rape; [3]
  Plant response rating, Rape: 0
rape; [4]
  Plant response rating, Rape: 1
rape; [5]
  Rape plant response rating: 7
rape; [7]
  Rape plant response rating: 10
rape; [8]
  Rape plant response rating: 0
soybean; [1]
  Soybean plant response rating: 4
soybean; [3]
  Plant response rating, Soybean: 5
soybean; [4]
  Plant response rating, Soybean: 0
soybean; [5]
  Soybean plant response rating: 0
soybean; [7]
  Soybean plant response rating: 1
soybean; [8]
  Soybean plant response rating: 4
Sugar beet; [1]
  Sugarbeets plant response rating: 0
Sugar beet; [3]
  Plant response rating, Sugarbeets: 1
Sugar beet; [4]
  Plant response rating, Sugarbeets: 0
Sugar beet; [5]
  Sugarbeets plant response rating: 4
Sugar beet; [7]
  Sugarbeets plant response rating: 7
Sugar beet; [8]
  Sugarbeets plant response rating: 0
velvetleaf; [1]
  Velvetleaf plant response rating: 0
velvetleaf; [3]
  Plant response rating, Velvetleaf: 1
velvetleaf; [4]
  Plant response rating, Velvetleaf: 0
velvetleaf; [5]
  Velvetleaf plant response rating: 2
velvetleaf; [7]
  Velvetleaf plant response rating: 6
velvetleaf; [8]
  Velvetleaf plant response rating: 0
wheat; [1]
  Wheat plant response rating: 0
wheat; [3]
  Plant response rating, Wheat: 3
wheat; [4]
  Plant response rating, Wheat: 0
wheat; [5]
  Wheat plant response rating: 0
wheat; [7]
  Wheat plant response rating: 5
wheat; [8]
  Wheat plant response rating: 0
Wild oat; [1]
  Wild oats plant response rating: 0
Wild oat; [3]
  Plant response rating, Wild oats: 5
Wild oat; [4]
  Plant response rating, Wild oats: 3
Wild oat; [5]
  Wild oats plant response rating: 8
Wild oat; [7]
  Wild oats plant response rating: 10
Wild oat; [8]
  Wild oats plant response rating: 0
Purple nutsedge; [1]
  Nutsedge plant response rating: 0
Purple nutsedge; [3]
  Plant response rating, Nutsedge: 2
Purple nutsedge; [4]
  Plant response rating, Nutsedge: 0
Purple nutsedge; [5]
  Nutsedge plant response rating: 0
Purple nutsedge; [7]
  Nutsedge plant response rating: 0
Purple nutsedge; [8]
  Nutsedge plant response rating: 0
rice; [9]
  Plant response rating, Rice (0 to 10 scale, 0 is no effect, 10 is complete control): 0
rice; [10]
  Rice plant response rating (0 to 10 scale, 0 is no effect, 10 is complete control): 0
rice; [11]
  Rice plant response rating: 0
rice; [12]
  Rice plant response rating: 0
Smallflower flatsedge; [9]
  Plant response rating, S. Flatsedge (0 to 10 scale, 0 is no effect, 10 is complete control): 0
Smallflower flatsedge; [10]
  S. Flatsedge plant response rating (0 to 10 scale, 0 is no effect, 10 is complete control): 0
Smallflower flatsedge; [11]
  S. Flatsedge plant response rating: 0
Smallflower flatsedge; [12]
  S. Flatsedge plant response rating: 0
Duck salad; [9]
  Plant response rating, Ducksalad (0 to 10 scale, 0 is no effect, 10 is complete control): 0
Duck salad; [10]
  Ducksalad plant response rating (0 to 10 scale, 0 is no effect, 10 is complete control): 0
Duck salad; [11]
  Ducksalad plant response rating: 0
Duck salad; [12]
  Ducksalad plant response rating: 0
bamyardgrass; [9]
  Plant response rating, Barnyardgrass (0 to 10 scale, 0 is no effect, 10 is complete control): 0
bamyardgrass; [10]
  Barnyardgrass plant response rating (0 to 10 scale, 0 is no effect, 10 is complete control): 0
bamyardgrass; [11]
  Barnyardgrass plant response rating: 0
bamyardgrass; [12]
  Barnyardgrass plant response rating: 0
